Assay results: patent US5415869A, “Taxol formulation” (The Research Foundation of State University of New York, priority 1993, dated 1995)
Where two headings read alike, the source gives them in different places.

Tests used:
[1] = system: A121a, a human ovarian tumor line; assay: Cytostatic activity in vitro, A121a; format: cell-based; settings: 72 hr
Excerpt: (§1) FIG. 7 is a plot of cell lines versus IC50 which compares the growth-inhibitory properties of taxol/liposomes to those of free taxol. Cells were placed at a density of 2×10^4 /ml in multiwell plates and allowed to adhere overnight. Triplicate wells were exposed to various concentration of taxol, either added as liposomes (solid bar), as a 100× concentrated stock in DMSO (stippled bar), or absorbed to serum proteins (hatched bar) in the absence of organic solvent. […] Experiments were repeated at least twice. Cell lines are as follows: Colon-26: murine colon carcinoma; B16: murine melanoma; B16F10: highly-metastatic variant of B16 murine melanoma; L1210: murine leukemia; 9L: rat gliosarcoma; A12la, Hcy-lb, and A90: human ovarian tumor cell lines.

[2] = system: C-26, a murine colon tumor line; assay: Cytostatic activity in vitro, C-26; format: cell-based
Excerpt: as §1

[3] = system: Colon-26 (C-26), a murine colon tumor model; assay: Antitumor activity in nine doses, s.c. Colon-26
Procedure: FIGS. 3A-C show plots of mean tumor size versus days after tumor implantation which indicates the antitumor effect of nine doses of free- or liposomal taxol on Colon-26 tumors. Subcutaneous Colon-26 tumors were initiated. When the tumor was measurable (day 8), treatment was initiated. Animals were dosed 3 times weekly, and treatment was given for 3 weeks, as indicated by the filled circle along the abscissa. Untreated controls received injections of saline or Diluent 12 (diluted 1:3) without taxol (panel A). Treatment with liposome-based taxol formulations consisted of 10, 40, or 60 mg/kg doses with taxol, PG, and PC SUV (B). Alternatively, free taxol in Diluent 12 (diluted 1:3 with saline), was administered at doses of 10, 20, or 30 mg/kg (C). […] Each treatment group consisted of ten animals. For humane reasons, animals were sacrificed when tumor volume exceeded 2000 mm^3.
In all experiments, the tumor volume of each animal was measured frequently, and the data was subjected to statistical analysis using an BMDP 1L program. The median time required for the tumor to reach 1500 mm^3 was determined for each treatment group (as indicated by the insert).
The viability of cells was >80% by trypan blue exclusion.
Subcutaneous tumors on the left flank were initiated by injection of 10^6 viable cells in a volume of 0.1 ml. Mice were then randomized into various treatment groups and numbered. The dose per mouse was adjusted on the basis of its weight, determined at the time of treatment. Treatment was started 7 or 8 days after tumor implantation, and consisted of i.v. injections through the tail vein. Buffer or Diluent 12 without taxol were used as control treatments. Animal weight and tumor volume was measured five times weekly until the tumor volume reached 2000 mm^3, at which time animals were sacrificed for humane reasons. Tumor volume was determined by measuring three orthogonal diameters of the tumor, and was calculated as 1/2 of the product of the diameters (Begg, A. C., "Principles and Practices of the Tumor Growth Delay Assay," Rodent Tumor (R. F. Kallman (ed.)), pp. 114-121, New York:Pergammon Press, (1987), which is hereby incorporated by reference). The data was analyzed for statistical significance using the BMDP 1L program (BMDP Statistical Software Inc.; Los Angeles, Calif.).

9L rate gliosarcoma = assay: Cytostatic activity in vitro, 9L; format: cell-based, rat; settings: 0.1% DMSO vs drug dissolved directly in serum-containing growth medium
Excerpt: as §1

tumor cell lines = assay: Cytostatic activity in vitro, variety of tumor cell lines; format: cell-based; settings: across tumor cell lines
Excerpt: as §1

A90 human ovarian tumor = assay: Cytostatic activity in vitro, A90; format: cell-based; settings: 0.1% DMSO vs drug dissolved directly in serum-containing growth medium
Excerpt: as §1

[4] = system: healthy BALB/c female mice; assay: Maximum Tolerated Dose / toxicity in healthy mice; format: in vivo; settings: i.v., single dose
Procedure: (§2) The Maximum Tolerated Dose ("MTD") for taxol-liposome formulations administered via the intravenous route was determined in healthy BALB/c female mice. Survey experiments to define the MTD were performed with two animals per group. Doses were escalated in 2-fold increments, starting at 5 mg/kg. Drug effects were determined by close observation of weight changes and survival. The highest non-lethal dose of taxol causing >10% weight loss within one week of cessation of dosing was defined as the MTD. Animals showing weight loss exceeding 20% were sacrificed, as changes of this magnitude often indicate lethal toxicity (E. Mayhew, unpublished observations). After completing the survey experiments, the approximate MTD was refined further using 3 groups of 8 mice.

[5] = Maximum Tolerated Dose / toxicity in healthy mice; format: in vivo; settings: mouse, in vivo, iv
Procedure: as §2

[6] = system: Colon-26 (C-26), a murine colon tumor model; assay: Antitumor activity in four doses, s.c. Colon-26; format: in vivo, BALB/c mice; settings: 4 i.v. doses
Procedure: Subcutaneous Colon-26 tumors were initiated. When the tumor was measurable (day 7), intravenous treatment was initiated and was repeated on days 8, 12, and 13 (as indicated by the filled circles along the abscissa). Untreated controls received injections of saline or Diluent 12 (diluted 1:3) without taxol (panel A). Treatment with liposome-based taxol formulations consisted of 20, 30, or 40 mg/kg doses of the following: taxol, and, PG, and PC multilamellar vesicles ("MLV") (B), taxol, PG, and PC SUV (C), or taxol, PEG-DPPE, and PC SUV (D). Alternatively, free taxol in Diluent 12 (diluted 1:3 with saline), was administered at doses of 10, 20, or 30 mg/kg (E). […] For humane reasons, animals were sacrificed when tumor volume exceeded 2000mm^3.
(§3) In all experiments, the tumor volume of each animal was measured frequently, and the data was subjected to statistical analysis using an BMDP 1L program. The median time required for the tumor to reach 1500 mm^3 was determined for each treatment group (as indicated by the insert). […]
Subcutaneous tumors on the left flank were initiated by injection of 10^6 viable cells in a volume of 0.1 ml. […] The dose per mouse was adjusted on the basis of its weight, determined at the time of treatment. […] Animal weight and tumor volume was measured five times weekly until the tumor volume reached 2000 mm^3, at which time animals were sacrificed for humane reasons. […]

[7] = system: advanced and refractory ovarian cancer; settings: phase II, heavily-pretreated patients; cited from earlier work
human tumor lines = assay: Cytostatic activity in vitro, human tumor lines; format: cell-based; settings: human tumor lines more sensitive than C-26
Excerpt: as §1

metastatic breast cancer = settings: phase II, pretreated patients; cited from earlier work
[8] = system: Colon-26 (C-26), a murine colon tumor model; assay: Antitumor activity in one dose, s.c. Colon-26; format: in vivo, BALB/c mice
Procedure: Subcutaneous Colon-26 tumors were initiated and checked daily. When the tumor was measurable (day 8), a single intravenous bolus dose of taxol was given, either in Cremophor EL®/ethanol (Diluent 12) or in liposomes (indicated by the filled circle along the abscissa). Untreated controls received injections of equivalent volumes of saline or Diluent 12 (diluted 1:3) without taxol (panel A). […]
as §3
Subcutaneous tumors on the left flank were initiated by injection of 10^6 viable cells in a volume of 0.1 ml. […] The dose per mouse was adjusted on the basis of its weight, determined at the time of treatment. […] Animal weight and tumor volume was measured five times weekly until the tumor volume reached 2000 mm^3, at which time animals were sacrificed for humane reasons.

[9] = free taxol 20 mg/kg (cumulative 180 mg/kg)

Compound: CC(=O)O[C@H]1C(=O)[C@@]2(C)[C@H]([C@H](OC(=O)c3ccccc3)[C@]3(O)C[C@H](OC(=O)[C@H](O)[C@@H](NC(=O)c4ccccc4)c4ccccc4)C(C)=C1C3(C)C)[C@]1(OC(C)=O)CO[C@@H]1C[C@@H]2O [taxol]
- IC50 [1]: 1500 ± 700 nM
- effect of DMSO on cytostatic activity ([2]; C-26): not affected by DMSO
- IC50 ([2]; Mus musculus, C-26, 72 hr): 90 ± 10 µM
- effect on tumor progression ([3]; 9 doses, any dose (10, 20, 30 mg/kg per injection)): gave no delay in tumor progression at any dose
- tumor growth delay, statistical significance (BMDP 1L) ([3]; 9 doses, time to reach 1500 mm^3): No dose of free taxol, up to and including lethal concentrations, had a significant effect on tumor progression
- effect on tumor progression [3, 9]: no effect was observed on tumor progression
- survival [3, 9]: most animals survived
- tolerability of individual injections ([3]; free taxol 30 mg/kg): tolerated as individual injections
- lethality ([3]; free taxol 30 mg/kg per injection): cumulatively lethal to all animals by day 21
- enhancement of free taxol activity by DMSO (9L rate gliosarcoma): approximately 8 fold
- variation of sensitivity to free taxol (tumor cell lines): ~100 fold
- enhancement of free taxol activity by DMSO (A90 human ovarian tumor): approximately 8 fold
- MTD, single dose [4]: 30 mg/kg
- MTD ([5]; owing to the toxicity of Diluent 12, read-out: dose of free taxol that could be given as a single injection): < 35 mg/kg
- MTD ([5]; single dose, read-out: MTD, single dose): ~30 mg/kg
- effect on tumor growth ([6]; days 7, 8, 12, 13, free taxol 10, 20, 30, liposomes 20, 30, 40 mg/kg per injection): showed no effect on tumor progression
- tumor growth delay, statistical significance (BMDP 1L) ([6]; vs buffer or vehicle controls): no significant delay in tumor growth at the dose levels tested, compared to buffer or vehicle controls (p>0.05)
- response rate [7]: 30%
- sensitivity to taxol relative to C-26 (human tumor lines): at least 10 fold
- overall response rate (metastatic breast cancer): 56%
- effect on tumor growth ([8]; single i.v. dose on day 8, free taxol 15, 25, 30 mg/kg, liposomes 25, 35, 45 mg/kg, vs controls): showed no effect on tumor growth
- tumor growth delay, statistical significance (BMDP 1L) ([8]; single i.v. dose, time to reach 1500 mm^3): no significant delay in tumor growth compared to vehicle or buffer controls (p.0.05)
